# Measured values as given in patent US20250214960A1, “COMPOUNDS HAVING ACTIVITY OF DEGRADING GSPT1 AND APPLICATION THEREOF” (SHANGHAI MEIZER PHARMACEUTICALS CO., LTD., priority 2021, published 2025).
# Where two headings read alike, the source gives them in different places.
# Experiments:
# Format in all cases: cell-based
# GSPT1 protein = molecular target: T1, GSPT1 protein (Homo sapiens, UniProt P15170+Q96SW2); experiment: Western blot detection of degradation activity of GSPT1 protein in Jeko-1 cells; conditions: JeKo-1, 24 h, read-out: GSPT1 degradation rate (%)
# T1 construct: endogenous in cells; host or cells: Jeko-1
# Experimental: Test Example 1: Western Blot Detection of Degradation Activity of GSPT1 Protein by the Compounds
# Cell line: Jeko-1 cell line was cultured with an RPMI1640 media containing 20% fetal bovine serum in an incubator at 37° C., 5% CO2, and saturated humidity.
# DMSO control group and test compound (concentration shown in the table below) were set up, after processing for 24 hours, the cells were collected, pre-cooled cell lysate was added and left on ice for 10 minutes. The total protein of the cells was extracted, and the protein concentration was measured and quantified using the BCA method. Routine gel preparation, sample loading, electrophoresis were conducted, then the membrane was transferred, and sealed, wherein the primary antibody was diluted with a blocking solution at 1:500-5000. The membrane was immersed in the diluted primary antibody and incubated overnight at 4° C. After rinsing, the secondary antibody was diluted with a sealing solution at 1:10000-20000, the membrane was immersed in the diluted secondary antibody, and incubated at room temperature for 45 minutes. After rinsing, the results were tested on ODYSSEY (Li-COR). GAPDH was used as an internal reference control.
# Image J software was used to perform gray level analysis on each band and the degradation rate of GSPT1 protein by the compounds was calculated.
# Jeko-1 cells = experiment: CCK8 method, inhibition of Jeko-1 cell proliferation; conditions: Homo sapiens; Jeko-1, 72 hours; read-out: Cellular proliferation inhibition IC50
# Experimental: Test Example 3: CCK8 Method for Detecting Inhibition of Jeko-1 Cell Proliferation by Compound of Formula
# Cell culture: The Jeko-1 cell line (human lymphoma cells) was cultured in RPMI-1640 complete medium containing […] and 1% penicillin streptomycin, and incubated in an incubator at 37° C., 5% CO2, and saturated humidity.
# Cell laying: Jeko-1 cells in logarithmic growth phase was taken, centrifuged, and an appropriate amount of complete culture medium was added to obtain a single-cell suspension, a hemocytometer was used for cell counting, and a cell suspension of 1.5×10^5 cells/mL was prepared, the cells were inoculated into a 96 well culture plate at a rate of 100 μL cell suspension per well and incubated in a CO2 cell incubator for 24 hours.
# CCK-8 detection: 72 hours after administration, 10% CCK-8 solution was added to each well, placed in a CO2 cell culture incubator, and incubated for 1-4 hours. The absorbance of each well was measured using a microplate reader at 450 nm.
# Calculation of cellular proliferation inhibition rate:
# Cellular proliferation inhibition rate (%)=[(Ac−As)/(Ac−Ab)]×100% • As: absorbance in experimental wells (including cells, culture medium, CCK-8 solution, and drug solution) • Ac: absorbance in control wells (including cells, culture medium, CCK-8 solution, without drugs) • Ab: absorbance in blank wells (including culture medium, CCK-8 solution, without cells or drugs)
# HL-60 cells = experiment: CTG method, inhibition of HL-60 cell proliferation; conditions: Homo sapiens; HL-60, 72 hours; read-out: Cellular proliferation inhibition IC50
# Experimental: (§1) Test Example 2: CTG Method for Detecting the Inhibitory Effect of Compounds of Formula on the Proliferation of HNT 34 or HL-60 Cells
# (§2) HNT-34 or HL-60 cells were taken and cultured in RPMI1640 medium containing 20% fetal bovine serum. The cells were inoculated on a 96 well plate, with 1×10^4 cells per well, and incubated at 37° C. in a […] incubator. After adding the test compound, it was incubated for 72 hours. Then an appropriate amount of CTG reagent was added, the luminescence value was measured, and the inhibition rate was calculated.
# HNT-34 cells = experiment: CTG method, inhibition of HNT-34 cell proliferation; conditions: HNT-34, 72 hours; read-out: Cellular proliferation inhibition IC50
# Experimental: as §1, §2
# T1 sequence (P15170 whole entry): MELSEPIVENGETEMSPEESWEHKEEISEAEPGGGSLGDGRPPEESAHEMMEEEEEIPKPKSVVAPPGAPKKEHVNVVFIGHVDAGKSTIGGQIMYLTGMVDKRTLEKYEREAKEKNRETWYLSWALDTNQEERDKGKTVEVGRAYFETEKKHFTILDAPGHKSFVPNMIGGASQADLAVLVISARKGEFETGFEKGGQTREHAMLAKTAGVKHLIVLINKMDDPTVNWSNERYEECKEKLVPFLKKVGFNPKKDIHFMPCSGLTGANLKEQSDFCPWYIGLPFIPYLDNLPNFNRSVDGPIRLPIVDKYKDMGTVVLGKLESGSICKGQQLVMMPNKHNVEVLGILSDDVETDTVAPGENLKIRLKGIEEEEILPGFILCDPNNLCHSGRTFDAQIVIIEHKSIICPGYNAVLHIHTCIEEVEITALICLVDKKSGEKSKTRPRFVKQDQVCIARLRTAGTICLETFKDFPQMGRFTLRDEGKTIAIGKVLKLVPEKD
# T1 sequence (Q96SW2 whole entry): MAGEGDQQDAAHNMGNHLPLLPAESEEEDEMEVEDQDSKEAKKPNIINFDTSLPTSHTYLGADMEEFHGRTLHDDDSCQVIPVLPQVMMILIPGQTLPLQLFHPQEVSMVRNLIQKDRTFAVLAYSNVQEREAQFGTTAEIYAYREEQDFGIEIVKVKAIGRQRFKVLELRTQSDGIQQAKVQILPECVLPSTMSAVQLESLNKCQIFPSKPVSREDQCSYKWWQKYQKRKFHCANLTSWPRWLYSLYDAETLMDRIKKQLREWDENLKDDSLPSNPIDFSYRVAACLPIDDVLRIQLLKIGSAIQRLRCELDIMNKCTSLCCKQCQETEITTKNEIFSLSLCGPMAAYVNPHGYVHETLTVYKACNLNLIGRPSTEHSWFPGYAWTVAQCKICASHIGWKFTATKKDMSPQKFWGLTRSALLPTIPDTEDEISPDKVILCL
# T1 sequence (Q16531 whole entry partner): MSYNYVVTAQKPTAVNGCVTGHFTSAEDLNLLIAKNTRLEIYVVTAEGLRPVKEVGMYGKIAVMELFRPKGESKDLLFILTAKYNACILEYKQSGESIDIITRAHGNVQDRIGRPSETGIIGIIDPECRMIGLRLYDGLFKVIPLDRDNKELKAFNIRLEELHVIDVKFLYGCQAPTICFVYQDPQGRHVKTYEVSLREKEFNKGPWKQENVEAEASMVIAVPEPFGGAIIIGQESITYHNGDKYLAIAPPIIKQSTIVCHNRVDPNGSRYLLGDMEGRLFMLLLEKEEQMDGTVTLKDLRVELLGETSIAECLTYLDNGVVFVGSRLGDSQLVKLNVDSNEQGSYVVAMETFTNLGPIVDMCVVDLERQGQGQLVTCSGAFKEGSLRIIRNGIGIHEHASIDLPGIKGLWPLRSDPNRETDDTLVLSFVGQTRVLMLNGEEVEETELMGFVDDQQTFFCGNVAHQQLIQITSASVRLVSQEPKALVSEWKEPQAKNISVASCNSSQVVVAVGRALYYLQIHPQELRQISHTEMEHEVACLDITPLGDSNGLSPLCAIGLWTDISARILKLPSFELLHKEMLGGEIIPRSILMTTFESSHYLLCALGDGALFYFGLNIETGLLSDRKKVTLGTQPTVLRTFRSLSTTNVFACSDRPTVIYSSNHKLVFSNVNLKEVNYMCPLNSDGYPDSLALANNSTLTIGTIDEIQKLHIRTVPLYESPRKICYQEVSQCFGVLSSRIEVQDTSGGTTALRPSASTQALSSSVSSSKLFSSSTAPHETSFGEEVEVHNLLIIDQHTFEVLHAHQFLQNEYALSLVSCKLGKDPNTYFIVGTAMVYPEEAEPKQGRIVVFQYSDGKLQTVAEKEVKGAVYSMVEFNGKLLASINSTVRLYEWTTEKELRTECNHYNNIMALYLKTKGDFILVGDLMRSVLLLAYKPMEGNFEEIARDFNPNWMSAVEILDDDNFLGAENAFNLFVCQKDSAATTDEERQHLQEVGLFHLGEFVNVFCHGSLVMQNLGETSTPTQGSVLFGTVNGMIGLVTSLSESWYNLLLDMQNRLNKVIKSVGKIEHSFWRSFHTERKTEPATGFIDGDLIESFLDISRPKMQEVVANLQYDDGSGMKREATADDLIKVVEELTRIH
"inhibition at 0.1 µM (GSPT1 protein; 100 nM, Jeko-1 cells, 24 hours)","inhibition at 10 µM (GSPT1 protein; 10 μM, Jeko-1 cells, 24 hours)",IC50 (HL-60 cells),Compound,IC50 (Jeko-1 cells),inhibition at 0.1 µM (GSPT1 protein),inhibition at 10 µM (GSPT1 protein),IC50 (HNT-34 cells)
96.9%,96.7%,,"CC(C)(C)OC(=O)NCC(C(=O)NCc1ccc2c(c1)CN(C1CCC(=O)NC1=O)C2=O)c1ccc(Cl)cc1 (centres unmarked) [Compound 5-41, Tert butyl (2-(4-chlorophenyl)-3-((2-(2,6-dioxypiperidin-3-yl)-1-oxoisoindoline-5-yl)methyl)amino)-3-oxopropyl) carbamate]",0.04 nM,,,
,,,CC(C)C1CC[C@H](C)C[C@@H]1OC(=O)N[C@H](C(=O)NCc1ccc2c(c1)CN(C1CCC(=O)NC1=O)C2=O)c1ccccc1 (some centres unmarked) [Compound 4-175],0.03 nM,93%,90%,
93%,82%,7.9 nM,"CC(C)(C)OC(=O)N[C@H](C(=O)NCc1ccc2c(c1)CN(C1CCC(=O)NC1=O)C2=O)c1ccc(F)c(Cl)c1 (some centres unmarked) [Compound 4-152, Tert butyl (1-(3-chloro-4-fluorophenyl)-2-((2-(2,6-dioxopyridin-3-yl)-1-oxoisoindoline-5-yl)methyl)amino)-2-oxoethyl) carbamate]",0.7 nM,,,6.6 nM
97.8%,99.5%,,"CC(C)(C)OC(=O)N[C@@H](Cc1ccccc1)C(=O)NCc1ccc2c(c1)CN(C1CCC(=O)NC1=O)C2=O (stereo partly drawn) [Compound 5-37, Tert butyl ((2S)-1-(2-(2,6-dioxypiperidin-3-yl)-1-oxoisoindoline-5-yl)methyl) amino)-1-oxo-3-phenylprop-2-yl) carbamate]",0.6 nM,,,
90.6%,93.6%,8.3 nM,"CC(C)(C)OC(=O)N[C@@H](CC1CCCCC1)C(=O)NCc1ccc2c(c1)CN(C1CCC(=O)NC1=O)C2=O (stereo partly drawn) [Compound 5-46, Tert butyl ((2S)-3-cyclohexyl-1-(2-((2,6-dioxopyridin-3-yl)-1-oxoisoidoline-5-yl)methyl)amino)-1-oxopropan-2-yl) carbamate]",0.2 nM,,,3.7 nM
,,,"CN(C(=O)OC1CCCC1)[C@H](C(=O)NCc1ccc2c(c1)CN(C1CCC(=O)NC1=O)C2=O)c1ccccc1 (stereo partly drawn) [Compound 5-36, Cyclopentyl ((1S)-2-((2-(2,6-dioxypiperidin-3-yl)-1-oxoisoindoline-5-yl)methyl)amino)-2-oxo-1-phenylethyl) (methyl) carbamate]",1 nM,97%,97%,
90%,99%,9.2 nM,"CC(C)(C)OC(=O)N[C@H](C(=O)NCc1ccc2c(c1)CN(C1CCC(=O)NC1=O)C2=O)c1ccc(Cl)cc1 (stereo partly drawn) [Compound 4-150, Tert butyl ((1S)-1-(4-chlorophenyl)-2-((2-(2,6-dioxopyridin-3-yl)-1-oxoisoidoline-5-yl)methyl)amino)-2-oxoethyl) carbamate]",3.9 nM,,,6.5 nM
89%,93%,,"CC(C)(C)OC(=O)N[C@H](C(=O)NCc1ccc2c(c1)CN(C1CCC(=O)NC1=O)C2=O)c1ccccc1 (stereo partly drawn) [Compound 4-87, Tert butyl ((1S)-2-((2-(2,6-dioxopiperidin-3-yl)-1-oxoisoindolin-5-yl)methyl)amino)-2-oxo-1-phenylethyl) carbamate]",0.2 nM,,,
52%,80%,35.4 nM,CC(C)CC(CNC(=O)OC(C)(C)C)C(=O)NCc1ccc2c(c1)CN(C1CCC(=O)NC1=O)C2=O (centres unmarked) [Compound 5-33],,,,32.7 nM
,,,"O=C1CCC(N2Cc3cc(CNC(=O)[C@@H](NC(=O)OC4CCCC4)c4ccccc4)ccc3C2=O)C(=O)N1 (stereo partly drawn) [Compound 4-159, Cyclopentyl (1S)-2-((2-(2,6-dioxypiperidin-3-yl)-1-oxoisoindoline-5-yl)methyl)amino)-2-oxo-1-phenylethyl) carbamate]",0.02 nM,93%,99%,
75%,98.1%,15 nM,"CC(C)(C)OC(=O)N[C@H](C(=O)NCc1ccc2c(c1)CN(C1CCC(=O)NC1=O)C2=O)C1CCCC1 (stereo partly drawn) [Compound 5-57, Tert butyl ((1S)-1-cyclopentyl-2-((2-(2,6-dioxopyridin-3-yl)-1-oxoisoidoline-5-yl)methyl)amino)-2-oxoethyl) carbamate]",,,,7.5 nM
100%,100%,,"CC(C)(C)OC(=O)NC(C(=O)NCc1ccc2c(c1)CN(C1CCC(=O)NC1=O)C2=O)c1ccccc1F (centres unmarked) [Compound 5-5, Tert butyl (2-((2-(2,6-dioxypiperidin-3-yl)-1-oxoisoidoline-5-yl)methyl)amino)-1-(2-fluorophenyl)-2-oxoethyl) carbamate]",0.2 nM,,,
84%,99%,12.5 nM,"CN(C(=O)OC(C)(C)C)[C@@H](C(=O)NCc1ccc2c(c1)CN(C1CCC(=O)NC1=O)C2=O)c1ccccc1 (stereo partly drawn) [Compound 5-31, Tert butyl ((1R)-2-((2-(2,6-dioxypiperidin-3-yl)-1-oxoisoindoline-5-yl)methyl)amino)-2-oxo-1-phenylethy 1) (methyl) carbamate]",,,,6.6 nM
79%,97%,25.2 nM,"O=C1CCC(N2Cc3cc(CNC(=O)[C@H](CC4CCCCC4)NC(=O)CC4CCCC4)ccc3C2=O)C(=O)N1 (stereo partly drawn) [Compound 5-92, (2S)-3-cyclohexyl-2-(2-cyclopentylacetamido)-N-((2-(2,6-dioxypiperidin-3-yl)-1-oxoisoindoline-5-yl)methyl) propionamide]",,,,25.2 nM
77%,95%,11.6 nM,"CC(C)(C)OC(=O)NC(C(=O)NCc1ccc2c(c1)CN(C1CCC(=O)NC1=O)C2=O)c1ccc(Cl)c(Cl)c1 (centres unmarked) [Compound 4-151, Tert butyl (1-(3,4-dichlorophenyl)-2-((2-(2,6-dioxopyridin-3-yl)-1-oxoisoindoline-5-yl)methyl)amino)-2-oxoethyl) carbamate]",1.3 nM,,,7.8 nM
18.8%,84.1%,25.8 nM,"CC(C)(C)OC(=O)N[C@H](C(=O)NCc1ccc2c(c1)CN(C1CCC(=O)NC1=O)C2=O)C1CCCCC1 (stereo partly drawn) [Compound 5-56, Tert butyl ((1S)-1-cyclohexyl-2-((2-(2,6-dioxopyridin-3-yl)-1-oxoisoidoline-5-yl)methyl)amino)-2-oxoethyl) carbamate]",,,,18 nM
79%,86%,14.3 nM,"CC(C)(C)OC(=O)N[C@H](C(=O)NCc1ccc2c(c1)CN(C1CCC(=O)NC1=O)C2=O)c1ccc2ccccc2c1 (stereo partly drawn) [Compound 4-133, tert butyl ((1S)-2-((2-(2,6-dioxypiperidin-3-yl)-1-oxoisoidoline-5-yl)methyl)amino)-1-(naphthalene-2-yl)-2-oxoethyl) carbamate]",,,,3.2 nM
